Experimental data published in PMC10541198, “Specific quinone reductase 2 inhibitors reduce metabolic burden and reverse Alzheimer’s disease phenotype in mice” (The Journal of Clinical Investigation, 2023).
Several values for one entry are separate records, joined by “and”; a condition that tells them apart may be missing. Identical values can stand only once.

Legend:
Amyloid β 42 = Amyloid β 42 ELISA, whole brain soluble and insoluble fractions; type: in vivo, mouse; design: Sup. Fig. 6-6A, individual animal values / Sup. Fig. 6-6B, individual animal values / Sup. Fig. 6-6D, individual animal values / Sup. Fig. 6-6G, individual animal values / Sup. Fig. 6-6H, individual animal values: unit not given here; details: for Insoluble amyloid β 42 / Ratio of soluble- to insoluble amyloid β 42 / Soluble amyloid β 42: whole brain, 5xFAD 1 month
Experimental: Following completion of treatment with YB-537 or vehicle for 1 month in drinking water, mice were sacrificed, and brains were quickly removed and placed on ice. Brains were then bisected, and the cerebellum removed. Both hemispheres were then flash frozen in liquid nitrogen, with one hemisphere being used for Amyloid β 42 detection and the other used for WB. For Amyloid β 42 detection the hemisphere was first weighed, and then homogenised on ice using 1 mL of 0.1% Triton X-100 in TBS with complete protease inhibitor (Roche) and phosphatase inhibitor cocktail (Roche). Homogenates were then centrifuged at 100,000g for 1 h at 4° C, and supernatant containing t he soluble fraction of Amyloid β 42 was collected and stored at - 20° C overnight. The pellet, containing insoluble Amyloid β 42 was re - suspended in 1 mL of 5M guanidine HCl, placed on a rocker at RT f or 2h, and then stored overnight at 4° C, with later storage being done at -20° C. The insoluble fraction was then diluted 1:5 in TBS, and centrifuged for 30 min at 13,000g and 4° C. The resulting supernatant was then used to quantify the insoluble fraction. Protein determination was done on both soluble and insoluble fractions thus prepared, using a BCA kit (Thermo). Human Amyloid (aa1- 42) Quantikine ELISA Kit was then used as per the manufacturer’s instructions (R&D Systems, DAB142). Results obtained were then quantified as ng Amyloid β 42 / mL sample / brain hemisphere weight.
Experimental grouping was randomly allocated, in both rats and mice. The size for each group was based on previously published results by means of similar methods, with the use of an online power calculator (https://www.stat.ubc.ca/~rollin/stats/ssize/n2.html). Shapiro- Wilk normality tests were done for the collected data. Anal ysi s of normally distributed dat a was done using par am et ri c t ests (i .e. - unpaired students t-test, one-way ANOVA followed by Tukey’s or Sidak post hoc anal ys i s) and for data not normally

5xFAD mice = assay: Open field in 5xFAD mice; type: in vivo, mouse; details: for hind-limb rearing frequency / maximum movement bout duration / meandering / proportion of time moving / total distance traveled / total movement duration / average velocity: 5xFAD 1 month; for Sup. Fig. 5-2C, open field parameter / Sup. Fig. 5-2D, open field parameter / Sup. Fig. 5-2E, open field parameter / Sup. Fig. 5-2F, open field parameter / Sup. Fig. 5-2G, open field parameter / Sup. Fig. 5-2H, open field parameter / Sup. Fig. 5-2I, open field parameter: individual animals
Experimental: Mice were individually placed within a cage and taken to a dimly lit room containing an open field arena 50 x 50 cm in size. They were gi ve n 10 min prior to be i ng placed within the arena, where f or a period of 5 min they were allowed to explore. Two weeks later, this was repeated. The mice were filmed with an Ikegami ICD-49E camera with EthoVision 14 (Noldus Information Technology). Th e fl oor was ei ther whit e or black,dependingon mous e coat c ol or, to allow automatic analysisof movement par am et ers, apar t from rearing which was manually counted. […]

Compound: Cc1ccc(-c2cn3cccc(C)c3n2)cc1S(=O)(=O)N1CCNCC1 [YB-537]
- Sup. Fig. 6-6A, individual animal values (Amyloid β 42; 5xFAD whole brain, all animals): 0.36 and 0.35 and 1.82 and 1.07 and 0.33 and 5.68 and 2.65 and 2.02 and 0.56
- Sup. Fig. 6-6B, individual animal values (Amyloid β 42; 5xFAD whole brain, all animals): 31.16 and 54.15 and 11052.63 and 8070.79 and 40.92 and 4330.77 and 6642.89 and 15767.97 and 26.71
- Sup. Fig. 6-6C, individual animal values (Amyloid β 42; 5xFAD whole brain, all animals, ratio of 6-6A to 6-6B values): 0.0114 and 0.0064 and 0.000165 and 0.000133 and 0.0080 and 0.0013 and 0.0004 and 0.000128 and 0.0210
- Sup. Fig. 6-6D, individual animal values (Amyloid β 42; 5xFAD whole brain, first subset of the 6-6A animals (sex not given)): 1.07 and 0.33 and 5.68 and 2.65 and 0.56 and 0.35
- Sup. Fig. 6-6F, individual animal values (Amyloid β 42; 5xFAD whole brain, first subset of the 6-6C animals (sex not given), ratio): 0.000133 and 0.0080 and 0.0013 and 0.0004 and 0.0210 and 0.0064
- Sup. Fig. 6-6G, individual animal values (Amyloid β 42; 5xFAD whole brain, second subset of the 6-6A animals (sex not given)): 2.02 and 0.36 and 1.82
- Sup. Fig. 6-6H, individual animal values (Amyloid β 42; 5xFAD whole brain, second subset of the 6-6B animals (sex not given)): 15767.97 and 31.16 and 11052.63
- Sup. Fig. 6-6I, individual animal values (Amyloid β 42; 5xFAD whole brain, second subset of the 6-6C animals (sex not given), ratio): 0.000128 and 0.0114 and 0.000165
- Insoluble amyloid β 42 (Amyloid β 42; both sexes): insignificantly reduced
- Ratio of soluble- to insoluble amyloid β 42 (Amyloid β 42; both sexes): insignificantly increased
- Soluble amyloid β 42 (Amyloid β 42; both sexes): insignificantly reduced
- Insoluble amyloid β 42 (Amyloid β 42; female): insignificantly reduced
- Soluble amyloid β 42 (Amyloid β 42; female): insignificantly reduced
- Insoluble amyloid β 42 (Amyloid β 42; male): insignificantly reduced
- Ratio of soluble- to insoluble amyloid β 42 (Amyloid β 42; male): insignificantly increased
- Soluble amyloid β 42 (Amyloid β 42; male): insignificantly reduced
- hind-limb rearing frequency (5xFAD mice; both sexes): 35.72 ± 3.292
- maximum movement bout duration (5xFAD mice; both sexes): 8.061 ± 1.322 s
- meandering (5xFAD mice; both sexes): 733.4 ± 42.8 deg/cm
- proportion of time moving (5xFAD mice; both sexes): 81.44 ± 1.134%
- total distance traveled (5xFAD mice; both sexes): 3244 ± 237.9 cm
- total movement duration (5xFAD mice; both sexes): 244.3 ± 3.402 s
- average velocity (5xFAD mice; both sexes, n=16): 10.9 ± 0.800 cm/s
- hind-limb rearing frequency (5xFAD mice; females): 35.29 ± 4.894
- maximum movement bout duration (5xFAD mice; females): 9.677 ± 3.012 s
- meandering (5xFAD mice; females): 696.3 ± 65.26 deg/cm
- proportion of time moving (5xFAD mice; females): 81.84 ± 1.856%
- total distance traveled (5xFAD mice; females): 3581 ± 484.5 cm
- total movement duration (5xFAD mice; females): 245.5 ± 5.568 s
- average velocity (5xFAD mice; females, n=7): 12.03 ± 1.625 cm/s
- hind-limb rearing frequency (5xFAD mice; males): 36.06 ± 4.703
- maximum movement bout duration (5xFAD mice; males): 6.804 ± 0.2919 s
- meandering (5xFAD mice; males): 762.2 ± 58.17 deg/cm
- proportion of time moving (5xFAD mice; males): 81.13 ± 1.5%
- total distance traveled (5xFAD mice; males): 2983 ± 179.3 cm
- total movement duration (5xFAD mice; males): 243.4 ± 4.5 s
- average velocity (5xFAD mice; males, n=9): 10.01 ± 0.611 cm/s
- Sup. Fig. 5-2C, open field parameter (5xFAD mice; Females): 10.98 and 10.27 and 10.24 and 21.02 and 13.07 and 7.45 and 11.20
- Sup. Fig. 5-2D, open field parameter (5xFAD mice; Females): 3256.8 and 3049.8 and 3043.6 and 6259.0 and 3891.4 and 2217.1 and 3346.6
- Sup. Fig. 5-2E, open field parameter (5xFAD mice; Females): 773.0 and 764.4 and 714.5 and 402.2 and 601.2 and 962.5 and 656.3
- Sup. Fig. 5-2F, open field parameter (5xFAD mice; Females): 6.70 and 6.10 and 6.62 and 27.48 and 6.06 and 5.20 and 9.58
- Sup. Fig. 5-2G, open field parameter (5xFAD mice; Females): 244.56 and 241.26 and 242.64 and 269.82 and 249.06 and 220.20 and 251.04
- Sup. Fig. 5-2H, open field parameter (5xFAD mice; Females): 81.52 and 80.42 and 80.88 and 89.94 and 83.02 and 73.40 and 83.68
- Sup. Fig. 5-2I, open field parameter (5xFAD mice; Females): 50 and 30.5 and 32 and 31.5 and 55 and 17 and 31
- Sup. Fig. 5-2C, open field parameter (5xFAD mice; Males + Females): 10.98 and 10.27 and 10.24 and 21.02 and 7.23 and 10.34 and 8.54 and 12.00 and 10.63 and 9.25 and 12.61 and 11.34 and 8.16 and 13.07 and 7.45 and 11.20
- Sup. Fig. 5-2D, open field parameter (5xFAD mice; Males + Females): 3256.8 and 3049.8 and 3043.6 and 6259.0 and 2163.2 and 3078.1 and 2557.7 and 3556.2 and 3161.5 and 2756.6 and 3753.0 and 3376.0 and 2440.2 and 3891.4 and 2217.1 and 3346.6
- Sup. Fig. 5-2E, open field parameter (5xFAD mice; Males + Females): 773.0 and 764.4 and 714.5 and 402.2 and 993.0 and 822.7 and 744.6 and 500.6 and 644.6 and 955.7 and 543.5 and 756.2 and 899.4 and 601.2 and 962.5 and 656.3
- Sup. Fig. 5-2F, open field parameter (5xFAD mice; Males + Females): 6.70 and 6.10 and 6.62 and 27.48 and 6.46 and 7.38 and 6.24 and 6.00 and 7.90 and 5.98 and 6.32 and 8.40 and 6.56 and 6.06 and 5.20 and 9.58
- Sup. Fig. 5-2G, open field parameter (5xFAD mice; Males + Females): 244.56 and 241.26 and 242.64 and 269.82 and 228.20 and 238.00 and 244.72 and 264.44 and 254.26 and 226.58 and 258.62 and 243.36 and 232.42 and 249.06 and 220.20 and 251.04
- Sup. Fig. 5-2H, open field parameter (5xFAD mice; Males + Females): 81.52 and 80.42 and 80.88 and 89.94 and 76.07 and 79.33 and 81.57 and 88.15 and 84.75 and 75.53 and 86.21 and 81.12 and 77.47 and 83.02 and 73.40 and 83.68
- Sup. Fig. 5-2I, open field parameter (5xFAD mice; Males + Females): 50.0 and 30.5 and 32.0 and 31.5 and 12.5 and 27.5 and 35.0 and 60.5 and 43.0 and 34.0 and 45.0 and 44.0 and 23.0 and 55.0 and 17.0 and 31.0
- Sup. Fig. 5-2C, open field parameter (5xFAD mice; Males): 12.00 and 10.63 and 9.25 and 12.61 and 11.34 and 8.16 and 7.23 and 10.34 and 8.54
- Sup. Fig. 5-2D, open field parameter (5xFAD mice; Males): 3556.2 and 3161.5 and 2756.6 and 3753.0 and 3376.0 and 2440.2 and 2163.2 and 3078.1 and 2557.7
- Sup. Fig. 5-2E, open field parameter (5xFAD mice; Males): 500.6 and 644.6 and 955.7 and 543.5 and 756.2 and 899.4 and 993.0 and 822.7 and 744.6
- Sup. Fig. 5-2F, open field parameter (5xFAD mice; Males): 6.00 and 7.90 and 5.98 and 6.32 and 8.40 and 6.56 and 6.46 and 7.38 and 6.24
- Sup. Fig. 5-2G, open field parameter (5xFAD mice; Males): 264.44 and 254.26 and 226.58 and 258.62 and 243.36 and 232.42 and 228.20 and 238.00 and 244.72
- Sup. Fig. 5-2H, open field parameter (5xFAD mice; Males): 88.15 and 84.75 and 75.53 and 86.21 and 81.12 and 77.47 and 76.07 and 79.33 and 81.57
- Sup. Fig. 5-2I, open field parameter (5xFAD mice; Males): 60.5 and 43 and 34 and 45 and 44 and 23 and 12.5 and 27.5 and 35
